Measurements reported in patent US6737383B1, “Herbicidal oxadiazolidines” (priority 1999, dated 2004).

What was measured:
cocklebur = test: Test B pre/postemergence cocklebur; type: in vivo, Xanthium strumarium
How it was run: (§1)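 Herbicidal effect was estimated by eye on a ten-point control scale after plants spent twelve to sixteen days in a greenhouse following soil or foliar treatment. Foliar sprays targeted plants at one to four leaves; all doses were formulated in a non-phytotoxic solvent with surfactant.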

corn = test: Test B pre/postemergence corn; type: in vivo, Zea mays
How it was run: as §1

crabgrass = test: Test B pre/postemergence crabgrass; type: in vivo, Digitaria sanguinalis
How it was run: as §1

giant foxtail = test: Test B pre/postemergence giant foxtail; type: in vivo, Setaria faberii
How it was run: as §1

morningglory = test: Test B pre/postemergence morningglory; type: in vivo, Ipomoea hederacea
How it was run: as §1

pigweed = test: Test B pre/postemergence pigweed; type: in vivo, Amaranthus retroflexus
How it was run: as §1

rape = test: Test B pre/postemergence rape; type: in vivo, Brassica napus
How it was run: as §1

soybean = test: Test B pre/postemergence soybean; type: in vivo, Glycine max
How it was run: as §1

sugar beet = test: Test B pre/postemergence sugar beet; type: in vivo, Beta vulgaris
How it was run: as §1

velvetleaf = test: Test B pre/postemergence velvetleaf; type: in vivo, Abutilon theophrasti
How it was run: as §1

wheat = test: Test B pre/postemergence wheat; type: in vivo, Triticum aestivum
How it was run: as §1

wild oat = test: Test B pre/postemergence wild oat; type: in vivo, Avena fatua
How it was run: as §1

purple nutsedge = test: Test B pre/postemergence purple nutsedge; type: in vivo, Cyperus rotundus
How it was run: as §1

rice = test: Test B flood test rice; type: in vivo, Oryza sativa
How it was run: (§2)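 Read-out is a visual response score from 0 (no effect) to 10 (complete control), assigned by comparison with untreated controls. Treatment was applied at the 2-leaf stage, and plants stayed in the greenhouse for twelve to sixteen days before scoring.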

duck salad = test: Test B flood test duck salad; type: in vivo, Heteranthera limosa
How it was run: as §2

bamyardgrass = test: Test B flood test barnyardgrass; type: in vivo, Echinochloa crus-galli
How it was run: as §2

[1] = Preemergence, Rate 62 g/ha, scale of 0 to 10 where 0 is no effect and 10 is complete control
[2] = Preemergence, Rate 250 g/ha, scale of 0 to 10 where 0 is no effect and 10 is complete control
[3] = Rate 31 g/ha, Postemergence, scale 0 to 10
[4] = Rate 62 g/ha, Postemergence, scale of 0 to 10 where 0 is no effect and 10 is complete control
[5] = Rate 125 g/ha, Postemergence, scale 0 to 10
[6] = Rate 125 g/ha, Preemergence, scale of 0 to 10 where 0 is no effect and 10 is complete control
[7] = Preemergence, Rate 31 g/ha, visual rating, scale 0 to 10 (0 no effect, 10 complete control)
[8] = Rate 31 g/ha, Pre-emergence section (flood test species), scale 0 to 10
[9] = Rate 62 g/ha, headed Pre-emergence (flood test species), scale 0 to 10 (0 no effect, 10 complete control)
[10] = Rate 125 g/ha, Pre-emergence, flood test species, scale 0 to 10 where 0 is no effect and 10 is complete control
[11] = Rate 250 g/ha, Pre-emergence, flood-test species, scale 0 to 10, 0 is no effect, 10 is complete control

CCCCn1c(=O)on(C(=O)N(c2ccc(F)cc2)C(C)C)c1=O [Compound 221]
Cocklebur plant response rating (cocklebur; [1]): 0 | Cocklebur plant response rating (cocklebur; [2]): 0 | Cocklebur plant response rating (cocklebur; [3]): 0 | Cocklebur plant response rating (cocklebur; [4]): 0 | Cocklebur plant response rating (cocklebur; [5]): 0 | Cocklebur plant response rating (cocklebur; [6]): 0 | Plant response rating (0 to 10; 0 is no effect, 10 is complete control), Cocklebur (cocklebur; Rate 250 g/ha, Postemergence): 0 | Corn plant response rating (corn; [7]): 0 | Corn plant response rating (corn; [1]): 0 | Corn plant response rating (corn; [2]): 0 | Corn plant response rating (corn; [3]): 0 | Corn plant response rating (corn; [4]): 0 | Corn plant response rating (corn; [5]): 0 | Corn plant response rating (corn; [6]): 0 | Plant response rating (0 to 10; 0 is no effect, 10 is complete control), Corn (corn; Rate 250 g/ha, Postemergence): 0 | Crabgrass plant response rating (crabgrass; [7]): 2 | Crabgrass plant response rating (crabgrass; [1]): 6 | Crabgrass plant response rating (crabgrass; [2]): 8 | Crabgrass plant response rating (crabgrass; [3]): 0 | Crabgrass plant response rating (crabgrass; [4]): 2 | Crabgrass plant response rating (crabgrass; [5]): 6 | Crabgrass plant response rating (crabgrass; [6]): 8 | Plant response rating (0 to 10; 0 is no effect, 10 is complete control), Crabgrass (crabgrass; Rate 250 g/ha, Postemergence): 8 | Giant foxtail plant response rating (giant foxtail; [7]): 5 | Giant foxtail plant response rating (giant foxtail; [1]): 5 | Giant foxtail plant response rating (giant foxtail; [2]): 10 | Giant foxtail plant response rating (giant foxtail; [3]): 0 | Giant foxtail plant response rating (giant foxtail; [4]): 2 | Giant foxtail plant response rating (giant foxtail; [5]): 7 | Giant foxtail plant response rating (giant foxtail; [6]): 9 | Plant response rating (0 to 10; 0 is no effect, 10 is complete control), Giant foxtail (giant foxtail; Rate 250 g/ha, Postemergence): 7 | Morningglory plant response rating (morningglory; [7]): 0 | Morningglory plant response rating (morningglory; [1]): 0 | Morningglory plant response rating (morningglory; [2]): 0 | Morningglory plant response rating (morningglory; [3]): 0 | Morningglory plant response rating (morningglory; [4]): 0 | Morningglory plant response rating (morningglory; [5]): 0 | Morningglory plant response rating (morningglory; [6]): 0 | Plant response rating (0 to 10; 0 is no effect, 10 is complete control), Morningglory (morningglory; Rate 250 g/ha, Postemergence): 0 | Redroot pigweed plant response rating (pigweed; [7]): 7 | Redroot pigweed plant response rating (pigweed; [1]): 9 | Redroot pigweed plant response rating (pigweed; [2]): 10 | Redroot pigweed plant response rating (pigweed; [3]): 2 | Redroot pigweed plant response rating (pigweed; [4]): 6 | Redroot pigweed plant response rating (pigweed; [5]): 8 | Redroot pigweed plant response rating (pigweed; [6]): 10 | Plant response rating (0 to 10; 0 is no effect, 10 is complete control), Redroot pigweed (pigweed; Rate 250 g/ha, Postemergence): 8 | Rape plant response rating (rape; [7]): 0 | Rape plant response rating (rape; [1]): 0 | Rape plant response rating (rape; [2]): 8 | Rape plant response rating (rape; [3]): 0 | Rape plant response rating (rape; [4]): 0 | Rape plant response rating (rape; [5]): 4 | Rape plant response rating (rape; [6]): 6 | Plant response rating (0 to 10; 0 is no effect, 10 is complete control), Rape (rape; Rate 250 g/ha, Postemergence): 4 | Soybean plant response rating (soybean; [7]): 0 | Soybean plant response rating (soybean; [1]): 0 | Soybean plant response rating (soybean; [2]): 0 | Soybean plant response rating (soybean; [4]): 2 | Soybean plant response rating (soybean; [5]): 2 | Soybean plant response rating (soybean; [6]): 0 | Plant response rating (0 to 10; 0 is no effect, 10 is complete control), Soybean (soybean; Rate 250 g/ha, Postemergence): 3 | Sugarbeets plant response rating (sugar beet; [7]): 0 | Sugarbeets plant response rating (sugar beet; [1]): 0 | Sugarbeets plant response rating (sugar beet; [2]): 10 | Sugarbeets plant response rating (sugar beet; [4]): 0 | Sugarbeets plant response rating (sugar beet; [5]): 4 | Sugarbeets plant response rating (sugar beet; [6]): 4 | Plant response rating (0 to 10; 0 is no effect, 10 is complete control), Sugarbeets (sugar beet; Rate 250 g/ha, Postemergence): 4 | Velvetleaf plant response rating (velvetleaf; [7]): 0 | Velvetleaf plant response rating (velvetleaf; [1]): 0 | Velvetleaf plant response rating (velvetleaf; [2]): 0 | Velvetleaf plant response rating (velvetleaf; [4]): 0 | Velvetleaf plant response rating (velvetleaf; [5]): 0 | Velvetleaf plant response rating (velvetleaf; [6]): 0 | Plant response rating (0 to 10; 0 is no effect, 10 is complete control), Velvetleaf (velvetleaf; Rate 250 g/ha, Postemergence): 0 | Wheat plant response rating (wheat; [7]): 0 | Wheat plant response rating (wheat; [1]): 0 | Wheat plant response rating (wheat; [2]): 2 | Wheat plant response rating (wheat; [4]): 0 | Wheat plant response rating (wheat; [5]): 2 | Wheat plant response rating (wheat; [6]): 2 | Plant response rating (0 to 10; 0 is no effect, 10 is complete control), Wheat (wheat; Rate 250 g/ha, Postemergence): 4 | Wild oats plant response rating (wild oat; [7]): 2 | Wild oats plant response rating (wild oat; [1]): 2 | Wild oats plant response rating (wild oat; [2]): 4 | Wild oats plant response rating (wild oat; [4]): 0 | Wild oats plant response rating (wild oat; [5]): 0 | Wild oats plant response rating (wild oat; [6]): 2 | Plant response rating (0 to 10; 0 is no effect, 10 is complete control), Wild oats (wild oat; Rate 250 g/ha, Postemergence): 2 | Nutsedge plant response rating (purple nutsedge; [7]): 0 | Nutsedge plant response rating (purple nutsedge; [1]): 0 | Nutsedge plant response rating (purple nutsedge; [2]): 0 | Nutsedge plant response rating (purple nutsedge; [3]): 0 | Nutsedge plant response rating (purple nutsedge; [4]): 0 | Nutsedge plant response rating (purple nutsedge; [5]): 0 | Nutsedge plant response rating (purple nutsedge; [6]): 0 | Plant response rating (0 to 10; 0 is no effect, 10 is complete control), Nutsedge (purple nutsedge; Rate 250 g/ha, Postemergence): 0 | Rice plant response rating (rice; [8]): 0 | Rice plant response rating (rice; [9]): 0 | Rice plant response rating (rice; [10]): 0 | Rice plant response rating (rice; [11]): 0 | Ducksalad plant response rating (duck salad; [8]): 0 | Ducksalad plant response rating (duck salad; [9]): 0 | Ducksalad plant response rating (duck salad; [10]): 0 | Ducksalad plant response rating (duck salad; [11]): 0 | Barnyardgrass plant response rating (bamyardgrass; [8]): 0 | Barnyardgrass plant response rating (bamyardgrass; [9]): 0 | Barnyardgrass plant response rating (bamyardgrass; [10]): 0 | Barnyardgrass plant response rating (bamyardgrass; [11]): 0
